Results from ChEMBL document CHEMBL1201862, “PubChem BioAssay data set” (2004).
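Method: 48-hour compound exposure of cells in 96-well plates, five concentrations, linear interpolation of endpoints. The concentration for 50% growth inhibition is given as GI50.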 Calls of active or inactive are those of the source. Cut-off read from the data, not from the text of the source: active = GI50 up to about 1.1 µM and inactive = higher.

Legend:
Test in all cases: inhibition of tumour cell growth, NCI panel, 48 h
SNB-19 = tested on: SNB-19
KM12 = tested on: KM12
SK-MEL-5 = tested on: SK-MEL-5
SF-539 = tested on: SF-539
NCI-H226 = tested on: NCI-H226
OVCAR-8 = tested on: OVCAR-8
SW-620 = tested on: SW-620
OVCAR-5 = tested on: OVCAR-5
M14 = tested on: M14
OVCAR-4 = tested on: OVCAR-4
SF-295 = tested on: SF-295
SK-MEL-28 = tested on: SK-MEL-28
HCC 2998 = tested on: HCC 2998
DU-145 = tested on: DU-145
U-251 = tested on: U-251
CCRF-CEM = tested on: CCRF-CEM
UACC-257 = tested on: UACC-257
786-0 = tested on: 786-0
CAKI-1 = tested on: CAKI-1
SK-MEL-2 = tested on: SK-MEL-2

SMILES | GI50 (SNB-19) | GI50 (KM12) | GI50 (SK-MEL-5) | GI50 (SF-539) | GI50 (NCI-H226) | GI50 (OVCAR-8) | GI50 (SW-620) | GI50 (OVCAR-5) | GI50 (M14) | GI50 (OVCAR-4) | GI50 (SF-295) | GI50 (SK-MEL-28) | GI50 (HCC 2998) | GI50 (DU-145) | GI50 (U-251) | GI50 (CCRF-CEM) | GI50 (UACC-257) | GI50 (786-0) | GI50 (CAKI-1) | GI50 (SK-MEL-2)
Cc1c2c(nc3ccccc13)C(=O)c1cccnc1C2=O | 16.3 µM (inactive) | 14.9 µM (inactive) | 0.381 µM (active) | 5.41 µM (inactive) | 18.9 µM (inactive) | 16.8 µM (inactive) | 12.1 µM (inactive) | 60.4 µM (inactive) | 6.52 µM (inactive) | 56.2 µM (inactive) | 12.4 µM (inactive) | 11.5 µM (inactive) | 7.62 µM (inactive) | 21.6 µM (inactive) | 10.8 µM (inactive) | 22.4 µM (inactive) | 6.97 µM (inactive) | 33.3 µM (inactive) |  | 
O=C(CC(C(=O)c1ccco1)c1ccsc1)c1ccco1 (configuration not stated) |  | > 100 µM (inactive) | > 100 µM (inactive) | > 100 µM (inactive) | > 100 µM (inactive) | > 100 µM (inactive) | > 100 µM (inactive) | > 100 µM (inactive) | > 100 µM (inactive) | 75.2 µM (inactive) | > 100 µM (inactive) | > 100 µM (inactive) | > 100 µM (inactive) | > 100 µM (inactive) | > 100 µM (inactive) | > 100 µM (inactive) | > 100 µM (inactive) | > 100 µM (inactive) | > 100 µM (inactive) | 
CC1(C)CCCCCCCCCC2CC2CCC(C)(C)C1=O (configuration not stated) | 34.6 µM (inactive) | 18.4 µM (inactive) | 22.8 µM (inactive) | 18.8 µM (inactive) | 14.2 µM (inactive) | 30.2 µM (inactive) | 35.9 µM (inactive) | 21.2 µM (inactive) | 18.8 µM (inactive) | 32.9 µM (inactive) | 18.3 µM (inactive) | 25.9 µM (inactive) |  | 20.5 µM (inactive) | 18.7 µM (inactive) | 21.6 µM (inactive) | 23.6 µM (inactive) | 17.2 µM (inactive) | 33.5 µM (inactive) | 18.6 µM (inactive)
CC1CC(=O)N(N(C)C)C2(C#N)C(=O)N=C(N)C12C#N (configuration not stated) | > 100 µM (inactive) | > 100 µM (inactive) | > 100 µM (inactive) | > 100 µM (inactive) |  | > 100 µM (inactive) | 35.4 µM (inactive) | > 100 µM (inactive) | > 100 µM (inactive) | > 100 µM (inactive) | > 100 µM (inactive) |  | > 100 µM (inactive) | > 100 µM (inactive) | > 100 µM (inactive) | 23.2 µM (inactive) | > 100 µM (inactive) | > 100 µM (inactive) | 23.4 µM (inactive) | > 100 µM (inactive)
C=CCN1CCC(O)(c2cc(C(=O)OCC)[nH]c2-c2cc(C)no2)C1 (configuration not stated) | > 100 µM (inactive) | > 100 µM (inactive) | > 100 µM (inactive) | > 100 µM (inactive) | > 100 µM (inactive) | > 100 µM (inactive) | > 100 µM (inactive) | > 100 µM (inactive) | > 100 µM (inactive) | > 100 µM (inactive) | > 100 µM (inactive) | > 100 µM (inactive) |  | > 100 µM (inactive) | > 100 µM (inactive) | > 100 µM (inactive) | > 100 µM (inactive) | > 100 µM (inactive) | > 100 µM (inactive) | > 100 µM (inactive)
CC(C)=CCC12Cc3ccc(O)cc3C(C(C)CN1)C2C (configuration not stated) | > 100 µM (inactive) | > 100 µM (inactive) | > 10 µM (inactive) | 72.1 µM (inactive) | > 100 µM (inactive) | > 100 µM (inactive) | > 100 µM (inactive) | 58.9 µM (inactive) | 21 µM (inactive) | > 100 µM (inactive) | 65.2 µM (inactive) | 49.9 µM (inactive) | 20.8 µM (inactive) | > 100 µM (inactive) | 83.4 µM (inactive) | 46.8 µM (inactive) | 27.3 µM (inactive) | > 100 µM (inactive) |  | 
N#CC(Cc1ccccc1)N(CCC1=CCCCC1)C(c1ccccc1)c1ccccc1 (configuration not stated) | > 100 µM (inactive) | > 100 µM (inactive) | 28 µM (inactive) |  |  | > 100 µM (inactive) | 38.9 µM (inactive) | 95.7 µM (inactive) | 18.8 µM (inactive) | > 100 µM (inactive) | > 100 µM (inactive) | 77.3 µM (inactive) | 32 µM (inactive) | > 100 µM (inactive) | 69.5 µM (inactive) | 0.456 µM (active) | 43 µM (inactive) | > 100 µM (inactive) | > 100 µM (inactive) | > 100 µM (inactive)
O=C(O)CCC(=O)OC1N=C(c2ccccc2Cl)c2cc([N+](=O)[O-])ccc2NC1=O (configuration not stated) | > 100 µM (inactive) | 40.7 µM (inactive) |  |  |  | 39 µM (inactive) | 26.1 µM (inactive) | > 100 µM (inactive) | > 100 µM (inactive) | 42.2 µM (inactive) | > 100 µM (inactive) | 60.1 µM (inactive) | > 100 µM (inactive) | > 100 µM (inactive) | 31.5 µM (inactive) | 26.3 µM (inactive) | > 100 µM (inactive) | 42.1 µM (inactive) | > 100 µM (inactive) | > 100 µM (inactive)
CC(CO)CCNc1ncnc2c1ncn2CCC(=O)OC(C)(C)C (configuration not stated) | > 100 µM (inactive) | > 100 µM (inactive) | > 100 µM (inactive) | > 100 µM (inactive) | > 100 µM (inactive) | > 100 µM (inactive) | > 100 µM (inactive) | > 100 µM (inactive) | > 100 µM (inactive) | > 100 µM (inactive) | > 100 µM (inactive) | > 100 µM (inactive) | > 100 µM (inactive) | > 100 µM (inactive) |  | > 100 µM (inactive) | > 100 µM (inactive) | > 100 µM (inactive) | > 100 µM (inactive) | 
Cc1nc(C)c(N2CCN(CN)CC2)c(O)n1 | > 100 µM (inactive) | > 100 µM (inactive) | > 100 µM (inactive) | > 100 µM (inactive) | > 100 µM (inactive) | > 100 µM (inactive) | > 100 µM (inactive) |  | > 100 µM (inactive) | > 100 µM (inactive) | > 100 µM (inactive) | > 100 µM (inactive) | > 100 µM (inactive) | > 100 µM (inactive) | 56.8 µM (inactive) | > 100 µM (inactive) | > 100 µM (inactive) | 88.7 µM (inactive) | 8.15 µM (inactive) | 
Cc1cccc2cc3c(ccc4ccccc43)c[n+]12 | 6.87 µM (inactive) | 2.75 µM (inactive) | 5.65 µM (inactive) | 16.7 µM (inactive) |  | 15.4 µM (inactive) | 21.3 µM (inactive) | > 100 µM (inactive) |  |  | 9.86 µM (inactive) | 14.7 µM (inactive) | 16.3 µM (inactive) | 64.6 µM (inactive) | 2.99 µM (inactive) | 15.5 µM (inactive) | 14 µM (inactive) | 18 µM (inactive) |  | 20.3 µM (inactive)
